Assay results published in US20260226010A1, “HETEROCYCLIC COMPOUNDS AS PI3Ka INHIBITORS” (Pikavation Therapeutics, Inc., priority 2023, published 2026).

System: T47D (PIK3CA H1047R) cells
Experiment: pS473 AKT assay
Type: cell-based
Settings: Homo sapiens; pSer473 AKT in T47D (PIK3CA H1047R) cells, 2 h treatment, DMEM with 2.5% FBS; read-out: T47D_IC50
Description: T47D (PIK3CA H1047R) cells were cultured using 10-cm petri dishes with recommended medium plus 10% fetal bovine serum. One day before the assay, cells were seeded in 96-well plates. After overnight incubation, the medium was changed to DMEM with 2.5% fetal bovine serum (FBS) and the cells were treated with different concentrations of the compounds for 2 h. Cells were then fixed using 4% paraformaldehyde at room temperature for 20 min. Aspirate 4% paraformaldehyde, and wash cells using 1× regular phosphate buffered saline 3 times, 5 min each. Aspirate any residual phosphate buffered saline and block cells using 10% goat serum containing 1% bovine serum albumin and 0.3% Triton X-100 at room temperature for 1 h. Without any additional washing, primary antibodies (rabbit anti-pSer473 AKT) were diluted using blocking buffer and added at a final volume of 50 microliter per well. Keep assay plates with primary antibodies overnight at 4° C. Wash cells using 1× regular phosphate buffered saline 3 times, 5 min each. After the final wash, incubate cells with horseradish peroxidase-conjugated secondary antibodies (goat Anti-rabbit IgG) diluted using the same blocking buffer at room temperature for 1 h. Wash cells thoroughly using 1× regular phosphate buffered saline 3 times, 5 min each. Aspirate any residual phosphate buffered saline. Add Super-Signal ELISA Pico Chemiluminescent Substrate at a final volume of 100 microliter per well. Read plates on i3× Multi-Mode Microplate Reader and calculate IC50 values using GraphPad Prism software.

IC50 [nM] | Compound
< 1000 | Cc1cc2c(c(C(C)Nc3ccc(Cl)nc3-c3cnn(C)c3)c1)CC1(CCc3ccccc31)N(C)C2=O (stereo not shown) [Example 6, 5-[1-[[6-Chloro-2-(1-methylpyrazol-4-yl)-3-pyridyl]amino]ethyl]-2,7-dimethyl-spiro[4H-isoquinoline-3,1′-indane]-1-one]
< 1000 | Cc1cc2c(c(C(C)Nc3ccc(Cl)nc3-c3ccncc3F)c1)CC1(CCc3ccccc31)N(C)C2=O (stereo not shown) [Example 7, 5-[1-[[6-Chloro-2-(3-fluoro-4-pyridyl)-3-pyridyl]amino]ethyl]-2,7-dimethyl-spiro[4H-isoquinoline-3,1′-indane]-1-one]

Second part, the compound before the results:

Compound | IC50 [nM]
Cc1cc2c(c(C(C)Nc3ccccc3C(=O)O)c1)CC1(CCc3ccccc31)N(C)C2=O (stereo not shown) [Example 1, 2-[1-(2,7-Dimethyl-1-oxo-spiro[4H-isoquinoline-3,1′-indane]-5yl)ethylamino]benzoic acid] | < 1000
Cc1cc2c(c(C(C)Nc3ccc(C)nc3C(=O)O)c1)CC1(CCc3ccccc31)N(C)C2=O (stereo not shown) [Example 2, 3-[1-(2,7-Dimethyl-1-oxo-spiro[4H-isoquinoline-3,1′-indane]-5-yl)ethylamino]-6-methyl-pyridine-2-carboxylic acid] | < 1000
Cc1cc2c(c(C(C)Nc3ccc(Cl)nc3C(=O)O)c1)CC1(CCc3ccccc31)N(C)C2=O (stereo not shown) [Example 3, 6-Chloro-3-[1-(2,7-dimethyl-1-oxo-spiro[4H-isoquinoline-3,1′-indane]-5-yl)ethylamino]pyridine-2-carboxylic acid] | < 1000
Cc1cc2c(c(C(C)Nc3ccccc3C(=O)O)c1)CC1(Cc3ccccc3C1)N(C)C2=O (stereo not shown) [Example 4, 2-[1-(2,7-Dimethyl-1-oxo-spiro[4H-isoquinoline-3,2′-indane]-5-yl)ethylamino]benzoic acid] | 1000 to 5000
Cc1cc2c(c(C(C)Nc3ccc(C)nc3C(=O)O)c1)CC1(Cc3ccccc3C1)N(C)C2=O (stereo not shown) [Example 5, 3-((1-(2′,7′-Dimethyl-1′-oxo-1,1′,3,4′-tetrahydro-2′H-spiro[indene-2,3′-isoquinolin]-5′-yl)ethyl)amino)-6-methylpicolinic acid] | 1000 to 5000
